From US8404713B2, “Quinolinone derivatives as PARP inhibitors” (Janssen Pharmaceutica NV, priority 2007, dated 2013)

Experiments:
Human PARP-1 enzyme = target: T1, Human PARP-1 enzyme (Homo sapiens, UniProt P09874); experiment: In vitro scintillation proximity assay (SPA) for PARP-1 inhibitory activity; assay type: biochemical; conditions: nicked DNA activated PARP-1, [3H]-NAD+, biotinylated histones; tested between 10^-5 M and 3x10^-9 M; read-out: in vitro SPA assay PARP-1 pIC50 (converted)
T1 construct: purchased Trevigen
T1 sequence (P09874 whole entry): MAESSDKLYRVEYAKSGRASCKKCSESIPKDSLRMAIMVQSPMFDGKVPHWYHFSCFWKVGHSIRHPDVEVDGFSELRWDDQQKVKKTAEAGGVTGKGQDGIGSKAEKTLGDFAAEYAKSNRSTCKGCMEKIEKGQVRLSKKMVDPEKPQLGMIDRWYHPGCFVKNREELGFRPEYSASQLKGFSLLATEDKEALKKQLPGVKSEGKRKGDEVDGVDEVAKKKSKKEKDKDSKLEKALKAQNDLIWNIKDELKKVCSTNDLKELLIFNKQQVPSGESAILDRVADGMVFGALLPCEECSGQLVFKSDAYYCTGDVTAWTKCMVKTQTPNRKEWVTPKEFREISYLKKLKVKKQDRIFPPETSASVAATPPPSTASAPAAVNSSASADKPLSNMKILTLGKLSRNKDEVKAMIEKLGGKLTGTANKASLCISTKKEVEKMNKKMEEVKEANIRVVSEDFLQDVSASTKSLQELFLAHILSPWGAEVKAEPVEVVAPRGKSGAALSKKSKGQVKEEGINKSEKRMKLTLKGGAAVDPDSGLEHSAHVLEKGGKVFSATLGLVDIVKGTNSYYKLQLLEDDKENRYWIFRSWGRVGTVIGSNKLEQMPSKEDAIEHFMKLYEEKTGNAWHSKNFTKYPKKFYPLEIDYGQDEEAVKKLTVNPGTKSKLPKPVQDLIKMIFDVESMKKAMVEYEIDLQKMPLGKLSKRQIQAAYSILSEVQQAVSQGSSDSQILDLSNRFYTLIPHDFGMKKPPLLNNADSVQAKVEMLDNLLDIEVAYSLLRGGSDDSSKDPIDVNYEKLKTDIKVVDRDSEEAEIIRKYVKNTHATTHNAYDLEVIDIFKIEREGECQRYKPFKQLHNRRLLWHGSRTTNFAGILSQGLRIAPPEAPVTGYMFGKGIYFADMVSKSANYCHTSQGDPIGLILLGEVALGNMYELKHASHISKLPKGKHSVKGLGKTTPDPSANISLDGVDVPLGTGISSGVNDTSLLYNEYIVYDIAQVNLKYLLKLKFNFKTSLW
Protocol: C.1. In Vitro Scintillation Proximity Assay (SPA) for PARP-1 Inhibitory Activity
Compounds of the present invention were tested in an in vitro assay based on SPA technology (proprietary to GE healthcare).
In principle, the assay relies upon the well established SPA technology for the detection of poly(ADP-ribosyl)ation of biotinylated target proteins, i.e histones. This ribosylation is induced using nicked DNA activated PARP-1 enzyme and [^3H]-nicotinamide adenine dinucleotide ([^3H]-NAD^+) as ADP-ribosyl donor.
Histones (type II-A, supplier: Sigma) were biotinylated using the biotinylation kit of Amersham and stored aliquoted at −20° C. A stock solution of 100 mg/ml SPA poly(vinyl toluene) (PVT) beads (supplier: Amersham) was made in PBS. A stock solution of 61.6 nM [^3H]-NAD^+ was made by adding [^3H]-NAD^+ (0.1 mCi/ml, supplier: Perkin Elmer) to incubation buffer (50 mM Tris/HCl, pH 8; 0.2 mM DTT; 4 mM MgCl2). A solution of 4 mM NAD^+ (supplier: Sigma) was made. Human PARP-1 enzyme was obtained from Trevigen. Biotinylated histones and PVT-SPA beads were mixed and pre-incubated for 30 min. at room temperature. PARP-1 enzyme (concentration was lot dependent) was mixed with the nicked DNA and the mixture was pre-incubated for 30 min. at 4° C. Equal parts of this histones/PVT-SPA beads solution and PARP-1 enzyme/DNA solution were mixed and 75 μl of this mixture together with 1 μl of compound in DMSO and 25 μl of [^3H]-NAD^+ was added per well into a 96-well microtiterplate. The final concentrations in the incubation mixture were 2 μg/ml for the biotinylated histones, 2 mg/ml for the PVT-SPA beads, 0.25 μg/ml for the nicked DNA and between 0.1-0.2 μg/ml for the PARP-1 enzyme. After incubation of the mixture for 20 min. at room temperature, the reaction was terminated by adding 100 μl of 4 mM NAD^+ in water (final concentration 2 mM) and plates were mixed. The beads were sedimented by centrifugation (10 min, 800 rpm). and plates transferred to a TopCountNXT™ (Packard) for scintillation counting, values were expressed as counts per minute (cpm). For each experiment, controls (containing PARP-1 enzyme and DMSO without compound), a blank incubation (containing DMSO but no PARP-1 enzyme, no DNA or compound) and samples (containing PARP-1 enzyme, DNA and compound dissolved in DMSO) were run in parallel. All compounds tested were dissolved and eventually further diluted in DMSO. A dose-response curve was made wherein the compounds were tested at concentrations between 10^−5M and 3×10^−9M. In each test, the blank value was subtracted from both the control and the sample values. The control sample represented maximal PARP-1 enzyme activity. For each sample, the amount of cpm was expressed as a percentage of the mean cpm value of the controls. When appropriate, IC50-values (concentration of the drug, needed to reduce the PARP-1 enzyme activity to 50% of the control) were computed using linear interpolation between the experimental points just above and below the 50% level. Herein the effects of test compounds are expressed as pIC50 (the negative log value of the IC50-value). As a reference compound, 4-amino-1,8-naphthalimide was included to validate the SPA assay.

TANK-2 enzyme = target: T2, TANK-2 enzyme (Homo sapiens, UniProt Q9H2K2); experiment: In vitro scintillation proximity assay (SPA) for TANK-2 inhibitory activity; assay type: biochemical; conditions: auto-poly(ADP-ribosyl)ation, Ni flash plates; 96-well results if available, otherwise 384-well; tested between 10^-5 M and 3x10^-8 M; read-out: in vitro SPA assay TANK-2 pIC50 (converted)
T2 construct: made in house
T2 sequence (Q9H2K2 1-1166): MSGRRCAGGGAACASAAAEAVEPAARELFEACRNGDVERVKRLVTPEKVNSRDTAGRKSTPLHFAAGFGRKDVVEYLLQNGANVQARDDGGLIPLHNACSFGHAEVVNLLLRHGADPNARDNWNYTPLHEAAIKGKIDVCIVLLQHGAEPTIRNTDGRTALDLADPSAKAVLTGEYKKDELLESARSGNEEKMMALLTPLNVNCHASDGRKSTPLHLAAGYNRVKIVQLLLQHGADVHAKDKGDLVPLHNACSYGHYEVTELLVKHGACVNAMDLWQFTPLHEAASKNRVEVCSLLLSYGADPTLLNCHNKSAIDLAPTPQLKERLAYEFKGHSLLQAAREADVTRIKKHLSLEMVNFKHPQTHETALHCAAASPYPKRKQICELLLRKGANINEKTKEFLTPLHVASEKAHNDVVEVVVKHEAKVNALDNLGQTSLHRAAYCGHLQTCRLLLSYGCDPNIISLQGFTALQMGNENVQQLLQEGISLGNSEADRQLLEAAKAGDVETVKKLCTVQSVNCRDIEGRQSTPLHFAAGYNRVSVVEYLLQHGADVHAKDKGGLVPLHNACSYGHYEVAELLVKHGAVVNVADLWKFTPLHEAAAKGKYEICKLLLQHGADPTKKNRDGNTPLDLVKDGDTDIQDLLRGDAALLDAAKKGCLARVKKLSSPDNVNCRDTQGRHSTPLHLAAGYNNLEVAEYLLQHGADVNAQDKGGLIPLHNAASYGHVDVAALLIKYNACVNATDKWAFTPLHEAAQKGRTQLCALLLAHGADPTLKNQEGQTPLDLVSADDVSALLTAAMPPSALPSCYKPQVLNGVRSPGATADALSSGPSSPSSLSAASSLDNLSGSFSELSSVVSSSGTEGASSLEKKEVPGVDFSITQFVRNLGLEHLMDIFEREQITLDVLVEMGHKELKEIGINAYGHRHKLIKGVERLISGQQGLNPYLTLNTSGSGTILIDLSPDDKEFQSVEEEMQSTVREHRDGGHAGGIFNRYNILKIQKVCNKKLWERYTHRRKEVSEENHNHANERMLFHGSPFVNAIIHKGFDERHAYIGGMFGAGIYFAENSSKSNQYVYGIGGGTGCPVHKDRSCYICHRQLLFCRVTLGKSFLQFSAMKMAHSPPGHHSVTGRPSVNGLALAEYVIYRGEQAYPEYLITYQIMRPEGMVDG
Protocol: C.2. In Vitro Scintillation Proximity Assay (SPA) for TANK-2 Inhibitory Activity
Compounds of the present invention were tested in an in vitro assay based on SPA technology with Ni Flash plates (96 or 384 well).
In principle, the assay relies upon SPA technology for the detection of auto-poly(ADP-ribosyl)ation of TANK-2 protein using [^3H]-nicotinamide adenine dinucleotide ([^3H]-NAD^+) as ADP-ribosyl donor.
A stock solution of 100 nM [^3H]-NAD^+/NAD (0.1 mCi/ml, supplier: Perkin Elmer) and 0.25 mM NAD (Sigma) was made in assay buffer (60 mM Tris/HCl, pH 7.4; 0.9 mM DTT; 6 mM MgCl2). The TANK-2 enzyme was produced as described in EP1238063. 60 μl of assay buffer, together with 1 μl of compound in DMSO, 20 μl of [^3H]-NAD^+/NAD and 20 μl of TANK-2 enzyme (final concentration 8 μg/ml) was added per well into a 96-well Ni-coated flash plate (Perkin Elmer). After incubation of the mixture for 120 min. at room temperature, the reaction was terminated by adding 60 μl of stopsolution (42.6 mg NAD in 6 ml H2O). The plates were covered with a plate sealer and placed in a TopCountNX™ (Packard) for scintillation counting. Values were expressed as counts per minute (cpm). For each experiment, controls (containing TANK-2 enzyme and DMSO without compound), a blank incubation (containing DMSO but no TANK-2 enzyme or compound) and samples (containing TANK-2 enzyme and compound dissolved in DMSO) were run in parallel. All compounds tested were dissolved and eventually further diluted in DMSO. […] In each test, the blank value was subtracted from both the control and the sample values. The control sample represented maximal TANK-2 enzyme activity. For each sample, the amount of cpm was expressed as a percentage of the mean cpm value of the controls. When appropriate, IC50-values (concentration of the drug, needed to reduce the TANK-2 enzyme activity to 50% of the control) were computed using linear interpolation between the experimental points just above and below the 50% level. Herein the effects of test compounds are expressed as pIC50 (the negative log value of the IC50-value). As reference compounds, 3-aminobenzamide and 4-amino-1,8-naphtalimide were included to validate the SPA assay. Herein the assay was described using 96-well plates. In the assay using 384-well plates the same final concentrations were used and volumes were adapted.

[1] = system: ischemia and reperfusion of the heart or skeletal muscle; conditions: rabbits, cited from earlier work
[2] = system: colitis induced by intraluminal trinitrobenzene sulfonic acid; conditions: rats, colitis by trinitrobenzene sulfonic acid in 50% ethanol; cited from earlier work

CCOC(=O)c1cnc(N2CCN(Cc3ccc4cc(CC)c(=O)[nH]c4c3)CC2)nc1 [Compound 11]
melting point: 235 °C
IC50 (Human PARP-1 enzyme): 0.0513 µM
IC50 (TANK-2 enzyme): 0.0361 µM

CCc1cc2ccc(C(C)NCCc3c[nH]c4ccccc34)cc2[nH]c1=O (stereo not drawn) [Compound 14]
melting point: 170 °C
IC50 (Human PARP-1 enzyme): 0.0701 µM
IC50 (TANK-2 enzyme): 0.428 µM

COc1ccccc1N1CCN(Cc2ccc3cc(C)c(=O)[nH]c3c2)CC1 [Compound 23]
melting point: 198 °C
IC50 (Human PARP-1 enzyme): 0.000251 µM
IC50 (TANK-2 enzyme): > 10 µM

CCc1cc2ccc(CN3CCN(c4ccccn4)CC3)cc2[nH]c1=O [Compound 2]
melting point: 252 °C
IC50 (Human PARP-1 enzyme): 0.000605 µM
IC50 (TANK-2 enzyme): 0.687 µM

Cc1cc2ccc(CN3CCC(c4ccccc4)CC3)cc2[nH]c1=O [Compound 7]
melting point: 225 °C
IC50 (Human PARP-1 enzyme): 0.00152 µM
IC50 (TANK-2 enzyme): > 10 µM

CCc1cc2ccc(CNC3CCN(c4ncccn4)CC3)cc2[nH]c1=O [Compound 15]
melting point: 168 °C
IC50 (Human PARP-1 enzyme): 0.0774 µM
IC50 (TANK-2 enzyme): 2.15 µM

CCc1cc2c(OC)cc(CN3CCN(c4ccccc4OC)CC3)cc2[nH]c1=O [Compound 64]
melting point: 80 °C
IC50 (Human PARP-1 enzyme): 0.00302 µM
IC50 (TANK-2 enzyme): 4.47 µM

CCc1cc2ccc(C(C(C)C)N3CCN(c4ccc(C#N)cn4)CC3)cc2[nH]c1=O (stereo not drawn) [Compound 13]
melting point: 135 °C
IC50 (Human PARP-1 enzyme): 0.00394 µM
IC50 (TANK-2 enzyme): 0.269 µM

Cc1cc2ccc(C(C)N3CCN(c4ccccc4C#N)CC3)cc2[nH]c1=O (stereo not drawn) [Compound 20]
melting point: 190 °C
IC50 (Human PARP-1 enzyme): 0.00108 µM
IC50 (TANK-2 enzyme): 0.94 µM

CCc1cc2ccc(CN3CCN(c4ccccc4)CC3)cc2[nH]c1=O [Compound 6]
melting point: 242 °C
IC50 (Human PARP-1 enzyme): 0.000938 µM
IC50 (TANK-2 enzyme): 1.9 µM

Oc1cccc2c(O)nccc12 [1,5-dihydroxyisoquinoline]
reduction in infarct size ([1]; single injection 1 mg/kg): 38-48%

CCc1cc2ccc(C(CO)N3CCC(Cc4ccccc4)CC3)cc2[nH]c1=O (stereo not drawn) [Compound 9]
melting point: 172 °C
IC50 (Human PARP-1 enzyme): 0.109 µM
IC50 (TANK-2 enzyme): 3.1 µM

CCc1cc2ccc(CN3CCN(c4ncc(C(N)=O)cn4)CC3)cc2[nH]c1=O [Compound 16]
melting point: > 250 °C
IC50 (Human PARP-1 enzyme): 0.0074 µM
IC50 (TANK-2 enzyme): 0.0362 µM

CCc1cc2ccc(C(O)CN3CCOCC3)cc2[nH]c1=O (stereo not drawn) [Compound 4]
melting point: 163 °C
IC50 (Human PARP-1 enzyme): 0.201 µM
IC50 (TANK-2 enzyme): 0.225 µM

CCc1cc2ccc(CNCCc3c[nH]c4ccccc34)cc2[nH]c1=O [Compound 1]
melting point: 155 °C
IC50 (Human PARP-1 enzyme): 0.0134 µM
IC50 (TANK-2 enzyme): 1.44 µM

CCc1cc2ccc(C(=O)N3CCc4ccccc4C3)cc2[nH]c1=O [Compound 10]
melting point: 255 °C
IC50 (Human PARP-1 enzyme): 0.108 µM
IC50 (TANK-2 enzyme): 0.454 µM

NC(=O)c1cccc(N)c1 [3-amino-benzamide]
effect on inflammatory response, morphology and energetic status of the distal colon [2]: reduced the inflammatory response and restored the morphology and the energetic status of the distal colon
reduction in infarct size in the heart ([1]; single injection 10 mg/kg, one minute before occlusion or one minute before reperfusion): 32-42%
